Results: paper PMC4316792, “The dehydrogenase region of the NADPH oxidase component Nox2 acts as a protein disulfide isomerase (PDI) resembling PDIA3 with a role in the binding of the activator protein p67^phox” (Frontiers in Chemistry, 2015)
Each block holds one molecule with its values, some of them ahead of it. Bridges are numbered along the chain shown (N, C = ends). The star is where a group is joined. Biotin = O=C1N[C@H]2[C@H](CS[C@H]2CCCCC(=O)*)N1

How the values were obtained:
p67^phox(1–526) [1] = assay: Peptide–protein binding assay, p67phox(1–526); conditions: native (non-disulfide) peptide
p67^phox(1–212) [2] = assay: Peptide–protein binding assay, p67phox(1–212); conditions: native (non-disulfide) peptide
[3] = PDI reductase activity, DE-GSSG reduction; assay type: biochemical; conditions: for PDI activity of isolated Nox2 peptides: DE-GSSG reduction over a wide concentration range; for Vmax, PDI reductase activity (Figure 6B): DTT only 5,124
[4] = test system: recombinant 6His-p67^phox; assay: Peptide–protein binding assay / peptide walking, p67phox; conditions: statement of Results section
[5] = test system: recombinant 6His-p67^phox; conditions: manuscript in preparation, cited from earlier work; for binding of p67phox to overlapping 15-mer peptides (peptide walking): ref Dahan and Pick; for binding of p67phox after introduction of intramolecular disulfide bond between C369 and C371 / binding of p67phox after reduction of the disulfide bond and alkylation of the reduced thiols: ref Fradin et al., [2011], [2012], Pick, Fradin and Pick
From the text: The cytosolic segment of Nox2 is also known as the dehydrogenase region (DHR) by virtue of the fact that it contains the NADPH- and FAD-binding sites and is homologous to the prokaryotic protein ferredoxin-NADP^+ reductase. The DHR comprises binding sites for p47^phox and Rac but, so far, there is no solid evidence for the identity of the binding site(s) for p67^phox. We approached this question by applying the “peptide walking” methodology (Joseph and Pick, [1995]; Dahan et al., [2012]; Dahan and Pick, [2012]). […] An important observation was that enhanced binding of p67^phox was evident only when the disulfide bond was established between two non-adjacent cysteines and between cysteines present in the same peptide; when the CGC tria ...

oxidized insulin = assay: Insulin reduction (turbidimetric) assay; assay type: biochemical
p67^phox(1–526) [6] = assay: Effect of thiol reagents on binding of p67phox(1–526) to Nox2 peptide 24; conditions: 1 h room temperature
NADPH oxidase = test system: NADPH oxidase; set-up: method as in 8 sources, one per row (each row's own in cited_ref): ref Shpungin et al., [1989] ||| ref Bellavite et al., [1983]; Gabig and Lefker, [1984] ||| ref Pick et al., [1987] ||| ref Le Cabec and Maridonneau-Parini, [1995] ||| ref Nishida et al., [2005] ||| ...; conditions: acts on a membrane component; ref Shpungin et al., [1989]; cited from earlier work
[7] = test system: NADPH oxidase in intact phagocytes / neutrophils; set-up: method as in 3 sources, one per row (each row's own in cited_ref): ref Cohen and Chovaniec, [1978]; Yamashita et al., [1984] ||| ref Le Cabec and Maridonneau-Parini, [1995] ||| ref Tsunawaki et al., [2004]; conditions: added before activation; ref Cohen and Chovaniec, [1978]; Yamashita et al., [1984]; cited from earlier work
p67^phox(1–526) [8] = assay: Protein–protein binding assay, p67phox(1–526); conditions: homodimers, 0.5 μM, p67phox coated at 0.5 μM; one characteristic experiment (Figure 5A)
p67^phox(1–212) [9] = assay: Protein–protein binding assay, p67phox(1–212); conditions: homodimers, 0.5 μM, p67phox coated at 0.5 μM; one characteristic experiment (Figure 5B)
p67^phox(1–212) [10] = target: T1, p67^phox(1–212) (UniProt P19878 1-212); assay: ELISA; peptide—protein binding assay as a1, with peptide 24 and the modified peptides, all in the reduced form, subjected to oxidation by 1 mM H2O2; conditions: both partners purified
T1 construct: contains four cysteines (40, 45, 121, 165); source: E. coli, purified (Nickel Sepharose); not shown: 6His, N-terminal, kept
T1 sequence (looked up): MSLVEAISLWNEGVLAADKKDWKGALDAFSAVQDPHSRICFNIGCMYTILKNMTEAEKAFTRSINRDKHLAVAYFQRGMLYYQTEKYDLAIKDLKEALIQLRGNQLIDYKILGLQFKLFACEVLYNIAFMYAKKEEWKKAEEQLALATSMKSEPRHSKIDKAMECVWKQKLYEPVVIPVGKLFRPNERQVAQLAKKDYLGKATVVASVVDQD

binding of p67phox(1–526) (p67^phox(1–526) [1]): low affinity
binding of p67phox(1–212) (p67^phox(1–212) [2]): low affinity
PDI activity of isolated Nox2 peptides [3]: No PDI activity
increase in binding of p67phox on introduction of intramolecular disulfide bond linking C369 and C371 [4]: marked increase
Molecule: peptide 28: 15-mer Nox2 peptide, residues 369–383, CGC triad at N-terminus (CGCDKQEFQDAWKLP; UniProt P04839 369-383, looked up, fragment)
binding of p67phox to overlapping 15-mer peptides (peptide walking) [5]: binds preferentially
binding of p67phox after introduction of intramolecular disulfide bond between C369 and C371 [5]: marked increase
binding of p67phox after reduction of the disulfide bond and alkylation of the reduced thiols [5]: totally abolished

Molecule: PDIA1: Recombinant PDI A1 (human), made in E. coli [reference compound]
Vmax, PDI reductase activity (Figure 7C,D) ([3]; 10 nM, DE-GSSG 0.8 μM, DTT 12.5 μM, pH 7.0, 24°C, mean ± SEM of 4 (PDIA1), 3 (PDIA3) experiments): 37,303 ± 1279
reductase activity relative to NusA-Nox2(357–570) ([3]; extrapolation of Vmax at 10 nM PDI to Vmax with 1 μM NusA-Nox2(357–570)): about 75 times
concentration down to which activity could be measured in insulin reduction assay (oxidized insulin; recombinant PDI): 10 nM

binding of p67phox(1–526) (p67^phox(1–526) [1]): low affinity
binding of p67phox(1–212) (p67^phox(1–212) [2]): low affinity
PDI activity of isolated Nox2 peptides [3]: No PDI activity
increase in binding of p67phox on introduction of intramolecular disulfide bond linking C369 and C371 [4]: marked increase
Molecule: IVGDWTEGLFNACGC [peptide 24, 15-mer Nox2 peptide, residues 357–371, CGC triad at C-terminus]
binding of p67phox to overlapping 15-mer peptides (peptide walking) [5]: binds preferentially
binding of p67phox after introduction of intramolecular disulfide bond between C369 and C371 [5]: marked increase
binding of p67phox after reduction of the disulfide bond and alkylation of the reduced thiols [5]: totally abolished

Molecule: CCN1C(=O)C=CC1=O [NEM, N-ethylmaleimide]
effect of pretreatment of p67phox on low affinity binding to native form of peptide 24 (p67^phox(1–526) [6]; NEM 0.1 mM or diamide 5 mM, three experiments (Figure 2A,B)): suppressed
effect of NEM pretreatment of p67phox on binding to peptide 24 in the disulfide form (p67^phox(1–526) [6]; p67^phox(1–526) 1.5 μM, NEM 0.1 mM, three experiments (Figure 2A)): totally abolished
inhibition of oxidase activation in vitro (NADPH oxidase): inhibited
inhibition of oxidase activation in intact phagocytes [7]: inhibited

binding of NusA-Nox2 to p67phox(1–526) (p67^phox(1–526) [8]): significant binding
binding of NusA-Nox2 to p67phox(1–212) (p67^phox(1–212) [9]): significant binding
B1: NusA-Nox2(357–570): fusion protein of NusA and Nox2 residues 357–570, contains the CGC triad (protein)
chain: IVGDWTEGLFNACGCDKQEFQDAWKLPKIAVDGPFGTASEDVFSYEVVMLVGAGIGVTPFASILKSVWYKYCNNATNLKLKKIYFYWLCRDTHAFEWFADLLQLLESQMQERNNAGFLSYNIYLTGWDESQANHFAVHHDEEKDVITGLKQKTLYGRPNWDNEFKTIASQHPNTRIGVFLCGPEALAETLSKQSISNSESGPRGVHFIFNKENF
modifications: left off: NusA (E. coli), N-terminal, kept | His tag (from the purification on Nickel Sepharose), end not stated, state not stated
notes: fusion protein of NusA and Nox2 residues 357–570, contains the CGC triad
Vmax, PDI reductase activity (Figure 7A) ([3]; 1 μM, DE-GSSG 0.8 μM, DTT 12.5 μM, pH 7.0, 24°C, mean ± SEM of 9 experiments): 49,164 ± 2271
Vmax, PDI reductase activity (Figure 6B) ([3]; 1 μM, DE-GSSG 800 nM, DTT 12.5 μM, one characteristic experiment): 41,130 milli relative fluorescence units per min
PDI activity compared with DTT alone ([3]; 2 μM (Figure 6A)): marked excess
Vmax, PDI reductase activity (Figure 6B) ([3]; 2 μM, DE-GSSG 800 nM, DTT 12.5 μM, one characteristic experiment): 62,074 milli relative fluorescence units per min
Vmax, PDI reductase activity in the absence of PAO (Figure 6D) ([3]; 2 μM, DE-GSSG 800 nM, DTT 12.5 μM, one characteristic experiment, DTT only 8,254): 40,306 milli relative fluorescence units per min
Vmax, PDI reductase activity (Figure 6C) ([3]; 2 μM, DE-GSSG 800 nM, DTT 12.5 μM, one characteristic experiment, DTT only 26,248): 127,476 milli relative fluorescence units per min
Vmax, PDI reductase activity (Figure 6B) ([3]; 3 μM, DE-GSSG 800 nM, DTT 12.5 μM, one characteristic experiment): 73,736 milli relative fluorescence units per min
Vmax, PDI reductase activity (Figure 6B) ([3]; 4 μM, DE-GSSG 800 nM, DTT 12.5 μM, one characteristic experiment): 86,162 milli relative fluorescence units per min
dose dependency of reductase activity ([3]; 1–4 μM (Figure 6B)): clear dose dependency
Vmax, PDI reductase activity (Figure 6A) ([3]; NusA-Nox2(357–570) 2 μM, DE-GSSG 800 nM, DTT 12.5 μM, pH 7.0, 24°C, 30 min, DTT only 7,108 and 9,423): 52,312 ± 1,380 milli relative fluorescence units per min
insulin reductase activity (oxidized insulin; up to 5 μM): no activity could be detected

binding result (p67^phox(1–212) [10]): binds
B2: Nox2 peptide 24 analog with CGC replaced by CysGlyProCys, intramolecular disulfide bond between cysteines 369 and 372 (peptide)
peptide: Biotin-SGSGIVGDWTEGLFNACGPC-NH2
modifications: disulfide 17-20
SMILES: CC[C@H](C)[C@H](NC(=O)CNC(=O)[C@H](CO)NC(=O)CNC(=O)[C@H](CO)NC(=O)CCCC[C@@H]1SC[C@@H]2NC(=O)N[C@@H]21)C(=O)N[C@H](C(=O)NCC(=O)N[C@@H](CC(=O)O)C(=O)N[C@@H](Cc1c[nH]c2ccccc12)C(=O)N[C@H](C(=O)N[C@@H](CCC(=O)O)C(=O)NCC(=O)N[C@@H](CC(C)C)C(=O)N[C@@H](Cc1ccccc1)C(=O)N[C@@H](CC(N)=O)C(=O)N[C@@H](C)C(=O)N[C@H]1CSSC[C@@H](C(N)=O)NC(=O)[C@@H]2CCCN2C(=O)CNC1=O)[C@@H](C)O)C(C)C
notes: spacer between the N-terminal biotin and the peptide, printed as Ser-Gly-Ser-Gly; also called 24N CGPC S-S (disulfide form); source: synthetic peptide (Mimotopes or Bachem), synthesized in the disulfide form; also made from the reduced peptide by oxidation with 1 mM H2O2; not shown: biotin, N-terminal, kept

binding of NusA-Nox2 to p67phox(1–526) (p67^phox(1–526) [8]): significant binding
binding of NusA-Nox2 to p67phox(1–212) (p67^phox(1–212) [9]): significant binding
B3: NusA-Nox2(328–570): fusion protein of NusA and Nox2 residues 328–570 (protein)
chain: KCPKVSKLEWHPFTLTSAPEEDFFSIHIRIVGDWTEGLFNACGCDKQEFQDAWKLPKIAVDGPFGTASEDVFSYEVVMLVGAGIGVTPFASILKSVWYKYCNNATNLKLKKIYFYWLCRDTHAFEWFADLLQLLESQMQERNNAGFLSYNIYLTGWDESQANHFAVHHDEEKDVITGLKQKTLYGRPNWDNEFKTIASQHPNTRIGVFLCGPEALAETLSKQSISNSESGPRGVHFIFNKENF
modifications: left off: NusA (E. coli), N-terminal, kept | His tag (from the purification on Nickel Sepharose), end not stated, state not stated
